Data published in patent publication US4200646A, “Method of controlling the growth of microorganisms using nitroalkyl thiocyanates” (International Minerals & Chemical Corporation, priority 1979, dated 1980).
≈ marks a conversion by molar mass, not a printed value. Entries after “also recorded” stand apart in the source; their conditions may differ. Like-named read-outs stand apart in the source and are kept apart here.

What was measured:
bacteria and fungi = experiment: Antimicrobial activity against bacteria and fungi; format: cell-based
microorganisms = experiment: Control of growth of microorganisms in metal working fluids; details: 500-1000 ppm or more
Streptococcus fecalis = experiment: Tube dilution method, minimum inhibitory concentration; format: cell-based
[1] = LD50 in mice by oral administration; details: mouse, in vivo
Protocol: The LD50 in mice by oral administration was determined to be 500 mg/kg.

[2] = test system: Pasteurella pseudotuberculosis; experiment: microbe, parasite or virus in culture; format: cell-based; details: Yersinia pseudotuberculosis, pH 7.3, read-out: Inhibitory Concn (minimum inhibitory concentration)
Aspergillus niger = experiment: Tube dilution method, minimum inhibitory concentration; format: cell-based
[3] = test system: Streptococcus hemolyticus; experiment: as above; format: cell-based; details: Streptococcus pyogenes
Candida albicans = experiment: as above; format: cell-based
Mycobacterium ranae = experiment: as above; format: cell-based
Staphyloccus aureus = experiment: as above; format: cell-based
Penicillium sp. = experiment: as above; format: cell-based
Pseudomonas aeruginosa = experiment: as above; format: cell-based
microbial contamination = experiment: Microbial contamination of cutting oil emulsion in use; details: emulsion with P-2216 0.1, light mineral oil 20, water 76.9, emulsifying agent 3 parts
Protocol: A cutting oil emulsion is prepared according to the following formula: […]
Light mineral oil 20 parts

Escherichia coli = experiment: Tube dilution method, minimum inhibitory concentration; format: cell-based
Shigella dysenteriae = experiment: as above; format: cell-based; details: pH 7.3, read-out: Inhibitory Concn (minimum inhibitory concentration)
Aspergillus fumigatus = experiment: as above; format: cell-based
[4] = pH 5.6, read-out: Inhibitory Concn (minimum inhibitory concentration)
[5] = pH 7.3, read-out: Inhibitory Concn (minimum inhibitory concentration)
[6] = Sabouraud broth pH 5.6, range between highest concentration permitting growth and lowest preventing growth, read-out: Inhibitory Concn (minimum inhibitory concentration)
[7] = trypticase soya broth pH 7.3, range between highest concentration permitting growth and lowest preventing growth, read-out: Inhibitory Concn (minimum inhibitory concentration)

For CCC(SC#N)[N+](=O)[O-] (centres unmarked) [1-nitropropyl thiocyanate], the “antimicrobial activity (in words)” value (bacteria and fungi) was “effective against a wide spectrum of bacteria and fungi” and the “control of growth of microorganisms in metal working fluids” value (“control of growth of microorganisms” below) (microorganisms) was “controls the growth of microorganisms for a prolonged period”.

In the case of CC(C)(SC#N)[N+](=O)[O-] [Example P-2216, 1-methyl-1-nitroethyl thiocyanate], the MIC (Streptococcus fecalis; Streptococcus, pH 7.3, read-out: Inhibitory Concn (minimum inhibitory concentration)) is reported as 50 to 100 µg/mL (≈ 342 to 684 µM), the LD50 ([1]; mice, oral administration, read-out: LD50) is reported as 500 mg/kg and the MIC [2] is reported as 1 to 10 µg/mL (≈ 6.84 to 68.4 µM). The MIC (Aspergillus niger; [4]) was 10 to 50 µg/mL (≈ 68.4 to 342 µM), the MIC [3, 5] was 50 to 100 µg/mL (≈ 342 to 684 µM) and the MIC (Candida albicans; [4]) was 1 to 10 µg/mL (≈ 6.84 to 68.4 µM). The MIC (Mycobacterium ranae; Mycobacterium, pH 7.3, read-out: Inhibitory Concn (minimum inhibitory concentration)) was 1 to 10 µg/mL (≈ 6.84 to 68.4 µM), the MIC (Staphyloccus aureus; [5]) was 1 to 10 µg/mL (≈ 6.84 to 68.4 µM) and the MIC (Penicillium sp.; Penicillium, pH 5.6, read-out: Inhibitory Concn (minimum inhibitory concentration)) was 10 to 50 µg/mL (≈ 68.4 to 342 µM). The MIC (Pseudomonas aeruginosa; [5]) was 10 to 50 µg/mL (≈ 68.4 to 342 µM), the “freedom from microbial contamination when used as a cutting oil” value (microbial contamination) was “remains free from microbial contamination for a long period of time” and the MIC (Escherichia coli; [5]) was 10 to 50 µg/mL (≈ 68.4 to 342 µM). For the same compound, the MIC (Shigella dysenteriae) was 10 to 50 µg/mL (≈ 68.4 to 342 µM) and the MIC (Aspergillus fumigatus; [4]) was 1 to 10 µg/mL (≈ 6.84 to 68.4 µM).

For N#CSC[N+](=O)[O-] [nitromethyl thiocyanate], the “antimicrobial activity (in words)” value (bacteria and fungi) was “effective against a wide spectrum of bacteria and fungi” and the “control of growth of microorganisms” value (microorganisms) was “controls the growth of microorganisms for a prolonged period”.

With CC(SC#N)[N+](=O)[O-] (centres unmarked) [1-nitroethyl thiocyanate] the “antimicrobial activity (in words)” value (bacteria and fungi) was “effective against a wide spectrum of bacteria and fungi” and the “control of growth of microorganisms” value (microorganisms) was “controls the growth of microorganisms for a prolonged period”.

For N#CSC1([N+](=O)[O-])CCCCC1 [Example P-2217, 1-nitrocyclohexyl thiocyanate], the MIC (Streptococcus fecalis; Streptococcus fecalis, trypticase soya broth pH 7.3, range between highest concentration permitting growth and lowest preventing growth, read-out: Inhibitory Concn (minimum inhibitory concentration)) was 50 to 100 µg/mL (≈ 268 to 537 µM), the LD50 ([1]; oral, species not restated in Example 5 (mice in Example 1), read-out: oral LD50) was 150 mg/kg and the “antimicrobial activity (in words)” value (bacteria and fungi) was “effective against both bacteria and fungi; also recorded: effective against a wide spectrum of bacteria and fungi”. The MIC [2] was 10 to 50 µg/mL (≈ 53.7 to 268 µM), the MIC (Aspergillus niger; [6]) was 10 to 50 µg/mL (≈ 53.7 to 268 µM) and the MIC ([3]; Streptococcus hemolyticus, trypticase soya broth pH 7.3, range between highest concentration permitting growth and lowest preventing growth, read-out: Inhibitory Concn (minimum inhibitory concentration)) was 50 to 100 µg/mL (≈ 268 to 537 µM). It also gave an MIC (Candida albicans; [6]) of 10 to 50 µg/mL (≈ 53.7 to 268 µM), an MIC (Mycobacterium ranae; Mycobacterium ranae, trypticase soya broth pH 7.3, range between highest concentration permitting growth and lowest preventing growth, read-out: Inhibitory Concn (minimum inhibitory concentration)) of 1 to 10 µg/mL (≈ 5.37 to 53.7 µM) and an MIC (Staphyloccus aureus; Staphyloccus aureus, trypticase soya broth pH 7.3, range between highest concentration permitting growth and lowest preventing growth, read-out: Inhibitory Concn (minimum inhibitory concentration)) of 1 to 10 µg/mL (≈ 5.37 to 53.7 µM). For the same compound, the MIC (Penicillium sp.; Penicillium sp., Sabouraud broth pH 5.6, range between highest concentration permitting growth and lowest preventing growth, read-out: Inhibitory Concn (minimum inhibitory concentration)) was 10 to 50 µg/mL (≈ 53.7 to 268 µM), the MIC (Pseudomonas aeruginosa; [7]) was 10 to 50 µg/mL (≈ 53.7 to 268 µM) and the MIC (Escherichia coli; [7]) was 10 to 50 µg/mL (≈ 53.7 to 268 µM). For the same compound, the “control of growth of microorganisms” value (microorganisms) was “controls the growth of microorganisms for a prolonged period”, the MIC (Shigella dysenteriae) was 50 to 100 µg/mL (≈ 268 to 537 µM) and the MIC (Aspergillus fumigatus; [6]) was 1 to 10 µg/mL (≈ 5.37 to 53.7 µM).
